By IC50 is commonly meant the point on the concentration scale where inhibition reaches its midpoint.

Where a SMILES comes first, the peptide text is derived from it. [ ]: non-standard residue; d: D form. The star is where a group is joined. Hydrocinnamoyl = O=C(CCc1ccccc1)*; Hyp = O=C(O)[C@@H]1C[C@@H](O)CN1; Propionyl = CCC(=O)*; Bn = c1ccc(C*)cc1; Ms = CS(=O)(=O)*; CH2Cl = ClC*

Drawing on ChEMBL document CHEMBL1150022, “O-benzyl hydroxyproline as a bioisostere for Phe-Pro: Novel dipeptide thrombin inhibitors” (Bioorg Med Chem Lett, 1996), this text covers IC50 for 15 molecules.

The test has as its target Prothrombin (Homo sapiens, UniProt P00734). The test is described as follows: Inhibition of thrombin.

`CC(=O)N1C[C@H](OCCC(c2ccccc2)c2ccccc2)C[C@H]1C(=O)N[C@@H](CCCN=C(N)N)C(=O)CCl` registered an IC50 of 0.01 µM.
As for `N=C(N)NCCC[C@H](NC(=O)[C@@H]1CCCN1C(=O)[C@H](N)Cc1ccccc1)C(=O)CCl`, the figure is 0.0015 µM; as for `CC(=O)N1C[C@H](CCc2ccccc2)C[C@H]1C(=O)N[C@@H](CCCN=C(N)N)C(=O)CCl`, 0.04 µM.
As for `CC(=O)N1C[C@H](OCCCc2ccccc2)C[C@H]1C(=O)N[C@@H](CCCN=C(N)N)C(=O)CCl`, the figure is 0.014 µM; as for `NC(N)=NCCC[C@H](NC(=O)[C@@H]1C[C@@H](OCc2ccccc2)CN1C(=O)[C@H](N)Cc1ccccc1)C(=O)CCl`, 0.003 µM.
Next, `CC(=O)N1C[C@@H](OCc2ccccc2)C[C@H]1C(=O)N[C@@H](CCCNC(=N)N)C(=O)CCl`: 4.6 µM.
Turning to `CCCCO[C@@H]1C[C@@H](C(=O)N[C@@H](CCCNC(=N)N)C(=O)CCl)N(C(C)=O)C1`, half-maximal inhibition (IC50) required 0.0216 µM.
Next, `CCN1C[C@H](OCc2ccccc2)C[C@H]1C(=O)N[C@@H](CCCNC(=N)N)C(=O)CCl`: 8.6 µM; `CC(=O)N1C[C@H](OCc2ccccc2)C[C@H]1C(=O)N[C@@H](CCCNC(=N)N)C(=O)CCl`: 0.0009 µM.
Take `N=C(N)NCCC[C@H](NC(=O)[C@@H]1C[C@H](OCc2ccccc2)CN1C(=O)[C@H](N)Cc1ccccc1)C(=O)CCl`: the IC50 was determined as 0.0072 µM.
In turn, `CC(=O)N1C[C@H](OCC2CCCCC2)C[C@H]1C(=O)N[C@@H](CCCN=C(N)N)C(=O)CCl` gave a half-maximal inhibitory concentration (IC50) of 0.0049 µM.
Next, `CC(=O)N1CCC[C@H]1C(=O)N[C@@H](CCCN=C(N)N)C(=O)CCl` (Ac-Pro-Arg-CH2Cl): 1.35 µM.
Next, `N=C(N)NCCC[C@H](NC(=O)[C@@H]1C[C@@H](OCc2ccccc2)CN1C(=O)CCc1ccccc1)C(=O)CCl` (Hydrocinnamoyl-[Hyp](Bn)-Arg-CH2Cl): 0.0317 µM; `CS(=O)(=O)N1C[C@H](OCc2ccccc2)C[C@H]1C(=O)N[C@@H](CCCNC(=N)N)C(=O)CCl` (Ms-[Hyp](Bn)-Arg-CH2Cl): 0.024 µM; `CCC(=O)N1C[C@H](OCc2ccccc2)C[C@H]1C(=O)N[C@@H](CCCN=C(N)N)C(=O)CCl` (Propionyl-[Hyp](Bn)-Arg-CH2Cl): 0.013 µM.
